In patent publication US9604945B2, “Sydnonimines-specific dopamine reuptake inhibitors and their use in treating dopamine related disorders” (priority 2007, dated 2017):

How the values were obtained:
male Swiss Webster mice = experiment: Time-course (8 hr) mouse locomotor activity testing; format: in vivo; settings: for Duration of suppression of spontaneous locomotor activity: FIGS. 6A and 6B; for ID50 (dose producing 1/2 maximal depressant activity): IP; for Planned comparisons against the vehicle group, horizontal activity counts in period of maximal depressant effect: ps<0.05
Method: A dose response study was conducted of locomotor depression induced by the compound of Example 3, according to NIDA's Medication Development Division (MDD) locomoter activity studies standard protocol. The study was conducted using 40 Digiscan locomotor activity testing chambers (40.5×40.5×30.5 cm) housed in sets of two, within sound attenuating chambers. A panel of infrared beams (16 beams) and corresponding photodetectors were located in the horizontal direction along the sides of each activity chamber. A 7.5 W incandescent light above each chamber provided dim illumination. Fans provided an 80 dB ambient noise level within the chamber. Separate groups of 8 non-habituated male Swiss Webster mice (Hsd:ND4, aged 2-3 months) were injected via the intraperitoneal (IP) route with either vehicle (2% methyl cellulose) or the compound of Example 3, above, (3, 10, 30 or 100 mg/kg) twenty minutes prior to locomotor activity testing. Just piro to placement in the apparatus, all mice received a saline injection IP. In all studies, horizontal activity (interruption of photocell beams) was measured for 1 hour within 10 minute periods. Testing was conducted with one mouse per activity chamber.
A time course/dose response study of the locomotor depression inducing effect of the compound of Example 3 was conducted, according to the same MDD locomotor activity studies time course protocol described immediately above, except that groups of 8 mice were injected with either vehicle (2% methylcellulose) or the compound of Example 3 (3, 10, 30 or 100 mg/kg), immediately prior to locomotor activity testing. Behavioral observations were recorded on each mouse at 30, 120 and 480 minutes following 100 mg/kg of the test compound. The vehicle used in this study was 2% methylcellulose.
A separate time course/dose response study of the locomotor depression inducing effect of the compound of Example 6 was also conducted, under the same conditions described above for testing of the compound of Example 3. Additional groups of 8 mice were injected with either vehicle (2% methylcellulose) or the test compound (3, 10, 30 or 100 mg/kg), immediately prior to locomotor activity testing. Behavioral observations were recorded on each mouse at 30, 120 and 480 minutes following 100 mg/kg of the test compound. The vehicle used in this study was 2% methylcellulose.
(§1) Depressant effects of 30 and 100 mg/kg occurred within 10 minutes following injection and lasted 140 to 160 minutes. The period 20-50 min was selected for analysis of dose-response data because this was the time period in which maximal suppression first appeared as a function of dose. The mean average horizontal activity counts/10 min for this 30-min period were fit to a linear function of log10 dose of the descending portion of the dose-effect curve (3 to 100 mg/kg dose range).
as §1, with “of” for “of 30 and”, “lasted” for “lasted 140 to”, “50-80” for “20-50”, “(10” for “(3”

[1] = target: dopamine transporter (DAT) (Cavia porcellus, UniProt H0WCX4); experiment: Dopamine transporter binding assay [3H]WIN 35,428; parameters: species or system Guinea Pig; settings: for inhibition at 10 µM: read-out: INH at 10 μM DAT
dopamine transporter (DAT), sequence (H0WCX4 1-619): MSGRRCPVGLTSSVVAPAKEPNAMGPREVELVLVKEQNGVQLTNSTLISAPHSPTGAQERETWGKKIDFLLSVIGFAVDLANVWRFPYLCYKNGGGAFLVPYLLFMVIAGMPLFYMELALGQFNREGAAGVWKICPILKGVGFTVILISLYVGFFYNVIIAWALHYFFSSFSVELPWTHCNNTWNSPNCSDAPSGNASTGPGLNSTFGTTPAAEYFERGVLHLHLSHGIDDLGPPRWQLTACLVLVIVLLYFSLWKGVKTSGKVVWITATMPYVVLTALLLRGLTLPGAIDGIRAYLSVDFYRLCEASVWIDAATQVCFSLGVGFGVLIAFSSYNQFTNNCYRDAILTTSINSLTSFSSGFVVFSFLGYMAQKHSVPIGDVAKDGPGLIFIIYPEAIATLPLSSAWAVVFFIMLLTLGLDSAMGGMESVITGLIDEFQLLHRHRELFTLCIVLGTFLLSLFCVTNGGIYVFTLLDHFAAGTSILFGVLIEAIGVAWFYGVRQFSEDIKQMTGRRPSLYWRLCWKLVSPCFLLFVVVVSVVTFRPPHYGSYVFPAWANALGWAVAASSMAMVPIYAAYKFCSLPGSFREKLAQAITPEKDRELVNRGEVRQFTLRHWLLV
Method: DAT inhibition activity was tested according to the procedure described by J. Javitz et al., Mol. Pharmacol., 26: 35-44 (1984). The test results for a number of representative compounds of the invention are reported hereinbelow.
I. Dopamine Transporter Binding Assay [3H]WIN 35,428
• This assay was carried out according to the procedure described by Javitch, J. J. et al., Mol. Pharmacol. 26: 35-44; 1984
A. Tissue Preparation (Prepare all Solutions on Ice) • 1. Thaw frozen brains from male Guinea Pigs (in assay buffer) and place in 50 mM TRIS-HCl (pH 7.4 at 25° C. with 120 mM NaCl). Isolate striatum. • 2. Use a Polytron to homogenize tissue in 20 vols. (w/v) of 50 mM Tris-HCl (pH 7.4 at 25° C. with 120 mM NaCl). • 3. Centrifuge homogenate at 48,400×g for approximately 10 minutes at 4° C. Discard supernatant. • 4. Wash pellet an additional time as described in steps 2 and 3. • 5. Store pellet on ice until needed for binding assay. • 6. Using a Polytron (setting 5; approximately 10 seconds) resuspend pellet in 50 mM Tris-HCl (pH 7.4 at 25° C. with 120 mM NaCl) to an initial concentration of 10 mg/ml (original wet weight), such that the final concentration is 8 mg/ml or 4.0 mg tissue/tube.
B. Binding Reaction • 1. Each tube receives the following components: • 50 ul drug or vehicle • 50 ul [3H]-WIN 35,428 • 400 ul tissue suspension. • 2. Initiate binding reaction with the addition of tissue, and incubate for 120 minutes at 0° C. (on ice). • 3. Terminate binding reaction by rapid filtration of tube contents onto untreated Whatman GF/C filters. • 4. Rinse the assay tubes once with ice cold 50 mM TRIS HCl (pH 7.4 at 25° C. with 120 mM NaCl, BSA), then rapidly rinse the filters with 6×1 mls/tube of the same wash buffer. • 5. Radioactivity trapped onto the filters is assessed using LSM machine. Let sit for 3 hours in scint cocktail.
C. Dopamine Tranasporter Binding Assay
Materials and Reagents • 1. [3H]-WIN 35-428 is diluted to a concentration of 60 nM in 50 mM TRIS HCl (pH 7.4 at 25° C. with 120 mM NaCl). Thus, the final ligand concentration is 6 nM. • 2. Non-specific binding is defined as that remaining in the presence of 1×10^-6 M GBR12909 (room temperature cabinet). GBR12909 MW=523.5 g/mol. Will solubilize in 4% DMSO (sonicate 15 minutes). Aliquots can be used (1E-3). • 3. The reference compound for the assay is GBR12909 and is diluted in 4% DMSO and is then run at the following final concentrations: 1×10^−10, 5×10^−10, 2×10^−9, 5×10^−9, 1×10^−8, 2×10^−8, 5×10^−8, 1×10^−7, 2×10^−7, 5×10^−7, 1×10^−6, 5×10^−6. • 4. The positive control GBR12909 and is run at the final concentrations of: 2×10-8, 1×10^−7, 5×10^−7M. • 5. The Kd for the receptor is 28.0 nM. Buffers

[2] = Tolerability and observable behavior changes; format: in vivo; settings: for Well tolerated dose: in vivo; for Duration of observable changes in behavior: occurred in minutes

Structure (SMILES)	Onset of depressant effects following injection (male Swiss Webster mice; 30 and 100 mg/kg IP) [min]	Duration of suppression of spontaneous locomotor activity (male Swiss Webster mice)	ID50 (dose producing 1/2 maximal depressant activity) (male Swiss Webster mice; period 20-50 min, 3 to 100 mg/kg dose range) [mg/kg]	Planned comparisons against the vehicle group, horizontal activity counts in period of maximal depressant effect (male Swiss Webster mice)	Ki [1] [nM]	inhibition at 10 µM [1] [%]	Dosage above which subjects became lethargic [2]	Well tolerated dose [2]	Duration of observable changes in behavior [2] [h]	Duration of depressant effects (male Swiss Webster mice; 100 mg/kg IP) [min]	Onset of depressant effects following injection (male Swiss Webster mice; 100 mg/kg IP) [min]	ID50 (dose producing 1/2 maximal depressant activity) (male Swiss Webster mice; period 50-80 min, 10 to 100 mg/kg dose range) [mg/kg]	Lethargic effect (compared with Example 3) ([2]; higher concentrations)
Cc1ccc(C[n+]2[cH-]/c(=N\C(=O)Nc3ccccc3)on2)cc1 [Example 3, N-phenylcarbamoyl-3-(p-methyl-benzyl)-sydnonimine]	≤ 10	at least 3 hours	~24.0	significant depressant effect for 30 and 100 mg/kg	0.19	94	above 125 kg/mg	at least 200 mg/kg	2 to 3	–	–	–	–
O=C(/N=c1\[cH-][n+](CCCc2ccccc2)no1)Nc1ccccc1 [Example 6, N-phenylcarbamoyl-3-(phenylpropyl)-sydnonimine]	–	at least 3 hours	–	significant depressant effect for 100 mg/kg	25	96	–	at least 200 mg/kg	2 to 3	160	≤ 10	~30.2	this effect was reduced
